Data from PubChem BioAssay AID248 (DTP/NCI, 2004).
Values joined by “and” are separate entries in the source; they are usually repeats but may differ in a detail not shown here. Equal values may be shown once. Toxic doses and inconclusive results are not listed. Cut-off read from the data, not from the text of the source: active = T/C of 150% or more; inactive = T/C below 125%.

System: L1210 leukemia ip in BDF1 mice, survival T/C
Experiment: NCI In Vivo Anticancer Drug Screen. Data for tumor model L1210 Leukemia (intraperitoneal) in B6D2F1 (BDF1) mice
Conditions: endpoint: mean survival time, higher = longer survival
In short: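 Transplantable tumor model; survival measured in treated vs vehicle control mice. Value = treated/control.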

[1] = dose: 100.0 mg/kg/injection, schedule: Q04DX003 (ip), vehicle: saline
[2] = dose: 200.0 mg/kg/injection, schedule: Q04DX003 (ip), vehicle: saline
[3] = dose: 100.0 mg/kg/injection, schedule: Q04DX003 (ip), vehicle: saline with Tween-80
[4] = dose: 100.0 mg/kg/injection, schedule: Q04DX002 (ip), vehicle: Klucel (hydroxypropylcellulose) (HPC)
[5] = dose: 100.0 mg/kg/injection, schedule: Q01DX001 (ip), vehicle: other
[6] = dose: 400.0 mg/kg/injection, schedule: Q01DX001 (ip), vehicle: other
[7] = dose: 100.0 mg/kg/injection, schedule: Q01DX001 (ip), vehicle: carboxymethylcellulose (CMC)
[8] = dose: 100.0 mg/kg/injection, schedule: Q01DX009 (ip), vehicle: Klucel (hydroxypropylcellulose) (HPC)
[9] = dose: 400.0 mg/kg/injection, schedule: Q01DX009 (ip), vehicle: Klucel (hydroxypropylcellulose) (HPC)
[10] = dose: 100.0 mg/kg/injection, schedule: Q01DX001 (ip), vehicle: Klucel (hydroxypropylcellulose) (HPC)
[11] = dose: 200.0 mg/kg/injection, schedule: Q01DX001 (ip), vehicle: Klucel (hydroxypropylcellulose) (HPC)
[12] = dose: 200.0 mg/kg/injection, schedule: Q01DX009 (ip), vehicle: Klucel (hydroxypropylcellulose) (HPC)
[13] = dose: 400.0 mg/kg/injection, schedule: Q01DX001 (ip), vehicle: Klucel (hydroxypropylcellulose) (HPC)

Measured: T/C

COc1ccccc1-n1c(O)c(N=Nc2ccccc2C)c(=O)n(-c2ccc(C)cc2)c1=S
inactive: dose: 37.5 mg/kg/injection, schedule: Q01DX001 (ip), vehicle: Klucel (hydroxypropylcellulose) (HPC) 102 % of control | dose: 75.0 mg/kg/injection, schedule: Q01DX001 (ip), vehicle: Klucel (hydroxypropylcellulose) (HPC) 99 % of control | dose: 150.0 mg/kg/injection, schedule: Q01DX001 (ip), vehicle: Klucel (hydroxypropylcellulose) (HPC) 89 % of control

O=C(O)/C(=C\c1ccccc1Br)c1ccc(C(F)(F)F)cc1[N+](=O)[O-]
inactive: dose: 100.0 mg/kg/injection, schedule: Q01DX009 (ip), vehicle: saline sonified 109 % of control | dose: 200.0 mg/kg/injection, schedule: Q01DX009 (ip), vehicle: saline sonified 98 % of control

NC(=O)c1cc[n+](-c2ccc([N+](=O)[O-])cc2[N+](=O)[O-])cc1
inactive: [1] 102 % of control | [2] 103 % of control

CCCCP(=O)(CCCC)Oc1cccc([N+](=O)[O-])c1
inactive: dose: 25.0 mg/kg/injection, schedule: Q04DX003 (ip), vehicle: saline with Tween-80 97 % of control | dose: 50.0 mg/kg/injection, schedule: Q04DX003 (ip), vehicle: saline with Tween-80 96 % of control | [3] 95 % of control and 102 % of control

Cc1c(C)c(C)c(CN2CCCC2)c(C)c1C
inactive: dose: 12.5 mg/kg/injection, schedule: Q01DX005 (ip), vehicle: Klucel (hydroxypropylcellulose) (HPC) 107 % of control | dose: 12.5 mg/kg/injection, schedule: Q04DX002 (ip), vehicle: Klucel (hydroxypropylcellulose) (HPC) 109 % of control | dose: 25.0 mg/kg/injection, schedule: Q01DX005 (ip), vehicle: Klucel (hydroxypropylcellulose) (HPC) 97 % of control | dose: 25.0 mg/kg/injection, schedule: Q04DX002 (ip), vehicle: Klucel (hydroxypropylcellulose) (HPC) 86 % of control | dose: 35.0 mg/kg/injection, schedule: Q01DX009 (ip), vehicle: Klucel (hydroxypropylcellulose) (HPC) 90 % of control | dose: 50.0 mg/kg/injection, schedule: Q04DX002 (ip), vehicle: Klucel (hydroxypropylcellulose) (HPC) 112 % of control | [4] 94 % of control

CC(=O)Oc1ccc2ccccc2c1CN(Cc1c(OC(C)=O)ccc2ccccc12)C(C)=O
inactive: [5] 96 % of control | [6] 93 % of control

NNC(=O)OCCO
inactive: dose: 25.0 mg/kg/injection, schedule: Q01DX009 (ip), vehicle: saline 103 % of control | dose: 50.0 mg/kg/injection, schedule: Q01DX009 (ip), vehicle: saline 104 % of control

Nc1ncnc2c1ncn2C1SC(CO)C2OC21 (centres undefined)
inactive: dose: 25.0 mg/kg/injection, schedule: Q01DX001 (ip), vehicle: carboxymethylcellulose (CMC) 93 % of control | dose: 50.0 mg/kg/injection, schedule: Q01DX001 (ip), vehicle: carboxymethylcellulose (CMC) 96 % of control | [7] 90 % of control | dose: 200.0 mg/kg/injection, schedule: Q01DX005 (ip), vehicle: saline 94 % of control

CCOC(=O)c1cnc(SC)nc1Nc1cccc(Cl)c1
inactive: [8] 97 % of control | dose: 100.0 mg/kg/injection, schedule: Q04DX003 (ip), vehicle: Klucel (hydroxypropylcellulose) (HPC) 90 % of control | dose: 200.0 mg/kg/injection, schedule: Q04DX003 (ip), vehicle: Klucel (hydroxypropylcellulose) (HPC) 92 % of control | [9] 90 % of control | dose: 400.0 mg/kg/injection, schedule: Q04DX003 (ip), vehicle: Klucel (hydroxypropylcellulose) (HPC) 88 % of control

c1ccc([Si](C[CH2][Sn]([c]2ccccc2)([c]2ccccc2)[c]2ccccc2)(c2ccccc2)c2ccc([Si](C[CH2][Sn]([c]3ccccc3)([c]3ccccc3)[c]3ccccc3)(c3ccccc3)c3ccccc3)cc2)cc1
inactive: [3] 100 % of control | dose: 200.0 mg/kg/injection, schedule: Q04DX003 (ip), vehicle: saline with Tween-80 96 % of control | dose: 400.0 mg/kg/injection, schedule: Q04DX003 (ip), vehicle: saline with Tween-80 96 % of control

O/N=C1\c2ccccc2-c2ccc(Cl)cc21
inactive: [7] 95 % of control | dose: 200.0 mg/kg/injection, schedule: Q01DX001 (ip), vehicle: carboxymethylcellulose (CMC) 111 % of control | dose: 400.0 mg/kg/injection, schedule: Q01DX001 (ip), vehicle: carboxymethylcellulose (CMC) 97 % of control

S=c1[nH]c(-c2ccccc2)cs1
inactive: dose: 50.0 mg/kg/injection, schedule: Q01DX001 (ip), vehicle: other 90 % of control | [10] 96 % of control | [5] 96 % of control | [8] 96 % of control | [11] 95 % of control | dose: 200.0 mg/kg/injection, schedule: Q01DX001 (ip), vehicle: other 100 % of control | [12] 96 % of control | [13] 95 % of control | [6] 96 % of control | [9] 97 % of control

CC(C)(C)OC(=O)CCSC(C)(C)C
inactive: [10] 96 % of control | [11] 96 % of control | [13] 96 % of control

Cc1ccccc1SCCC(=O)O
inactive: dose: 100.0 mg/kg/injection, schedule: Q01DX001 (ip), vehicle: saline 100 % of control | [8] 92 % of control | dose: 200.0 mg/kg/injection, schedule: Q01DX001 (ip), vehicle: saline 87 % of control | [12] 96 % of control | dose: 400.0 mg/kg/injection, schedule: Q01DX001 (ip), vehicle: saline 87 % of control | [9] 94 % of control

O=C(/C=C(/C(=C/C(=O)c1ccccc1)c1ccccc1)c1ccccc1)c1ccccc1
inactive: dose: 50.0 mg/kg/injection, schedule: Q01DX009 (ip), vehicle: Klucel (hydroxypropylcellulose) (HPC) 102 % of control | [8] 94 % of control | [12] 87 % of control

c1ccc(N2CCN(c3ccccc3)C2C2CO2)cc1 (centres undefined)
inactive: [1] 95 % of control | [2] 97 % of control | dose: 400.0 mg/kg/injection, schedule: Q04DX003 (ip), vehicle: saline 98 % of control

CCO/C(C)=N/OC(=O)c1ccccc1
inactive: [4] 94 % of control | dose: 200.0 mg/kg/injection, schedule: Q04DX002 (ip), vehicle: Klucel (hydroxypropylcellulose) (HPC) 110 % of control | dose: 400.0 mg/kg/injection, schedule: Q04DX002 (ip), vehicle: Klucel (hydroxypropylcellulose) (HPC) 94 % of control
